US20020137929A1, “1 - (3-heterocyclylphenyl) isothiourea, -isourea, -guanidine and -amidine herbicidal agents” (Intellectual Property Department, BASF Aktiengesellschaft, priority 1998, published 2002)

Experiments:
[1] = tested on: ABUTH (Velvetleaf); assay: Postemergence herbicidal evaluation; format: in vivo, Abutilon theophrasti; conditions: postemergence
Procedure, shortened: (§1)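 Scores (0–9) reflect plant stand, vigor, malformation, size, chlorosis and general appearance relative to control, read 4 to 5 weeks after treatment and averaged where tests were repeated. Application: about 0.0156–0.500 kg/ha sprayed at 40 psi onto two-week seedlings.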

[2] = tested on: ECHORC (Watergrass (Calif.)); assay: Postemergence weed control under flooded paddy conditions; format: in vivo, Echinochloa oryzoides; conditions: postemergence weeds, rated 3 to 4 weeks after treatment
Procedure, shortened: (§2)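 With weeds 3 to 5 cm tall and rice at the 1.5 to 2.5 leaf stage, containers were flooded and water held 1.5 to 3 cm above soil. Compounds in 50/50 v/v aqueous/acetone went into the flood water at about 0.0313 to 0.500 kg/ha a.i. Effects were visually rated 0–9 against controls after three to four weeks in the greenhouse.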

[3] = tested on: SETVI (Foxtail, Green); assay: Preemergence herbicidal evaluation; format: in vivo, Setaria viridis; conditions: rated 4-5 weeks after treatment
Procedure, shortened: (§3)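 Preemergence soil application of compound, sprayed in aqueous acetone at rates equivalent to about 0.0156 to 0.500 kg per hectare onto freshly sown cups. Plant response was judged by eye on a 0-9 scale four to five weeks later.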

[4] = tested on: CYPIR (Rice Flatsedge); assay: Postemergence weed control under flooded paddy conditions; format: in vivo, Cyperus iria; conditions: postemergence weeds, rated 3 to 4 weeks after treatment
Procedure, shortened: as §2

[5] = tested on: ECHCG (Barnyardgrass); assay: Preemergence herbicidal evaluation; format: in vivo, Echinochloa crus-galli; conditions: rated 4-5 weeks after treatment
Procedure, shortened: as §3

[6] = tested on: IPOHE (Morningglory, Ivyleaf); assay: Preemergence herbicidal evaluation; format: in vivo, Ipomoea hederacea; conditions: rated 4-5 weeks after treatment
Procedure, shortened: as §3

[7] = tested on: ORYSAT (Rice, Tebonnet); assay: Preemergence herbicidal evaluation; format: in vivo, Oryza sativa, (L.) Tebonnet; conditions: rated 4-5 weeks after treatment
Procedure, shortened: as §3

[8] = tested on: CHEAL (Lambsquarters, Common); assay: Preemergence herbicidal evaluation; format: in vivo, Chenopodium album; conditions: rated 4-5 weeks after treatment
Procedure, shortened: as §3

[9] = tested on: TRZAWR (Wheat, Winter, cv Riband); assay: Preemergence herbicidal evaluation; format: in vivo, Triticum aestivum; conditions: rated 4-5 weeks after treatment
Procedure, shortened: as §3

[10] = tested on: TRZAWR (Wheat, Winter, cv Riband); assay: Postemergence herbicidal evaluation; format: in vivo, Triticum aestivum; conditions: postemergence
Procedure, shortened: as §1

[11] = tested on: ECHORC (Watergrass (Calif.)); assay: Preemergence weed control under flooded paddy conditions; format: in vivo, Echinochloa oryzoides; conditions: rated 3-4 weeks after treatment
Procedure, shortened: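 Seeds or propagules sown in top 0.5 cm of silt loam soil, flooded 1.5 to 3 cm above surface throughout. Compound in 50/50 v/v aqueous/acetone pipetted into flood water at about 0.0313 to 0.500 kg/ha. Visual 0-9 rating versus control after three to four weeks in greenhouse.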

[12] = tested on: IPOHE (Morningglory, Ivyleaf); assay: Postemergence herbicidal evaluation; format: in vivo, Ipomoea hederacea; conditions: postemergence
Procedure, shortened: as §1

C[C@@H](C(=O)OC(C)(C)C)N1C(=O)CSC1=Nc1cc(-n2c(=O)cc(C(F)(F)F)n(C)c2=O)c(F)cc1Cl [Compound 75, tert-Butyl 2-{{2-chloro-5-[3,6-dihydro-3-methyl-2,6-dioxo-4-(trifluoromethyl)-1(2H)-pyrimidinyl]-4-fluorophenyl}imino}-α-methyl-4-oxo-3-thiazolidineacetate, L-]
ABUTH herbicidal rating ([1]; rate 0.0158 kg/ha): 9.0 | ABUTH herbicidal rating ([1]; rate 0.0315 kg/ha): 9.0 | ABUTH herbicidal rating ([1]; rate 0.0630 kg/ha): 9.0 | Herbicidal rating ECHORC ([2]; Rate 0.0313 kg/ha): 6.0 | Herbicidal rating ECHORC ([2]; Rate 0.0625 kg/ha): 6.0 | Herbicidal rating ECHORC ([2]; Rate 0.1250 kg/ha): 9.0 | Herbicidal rating ECHORC ([2]; Rate 0.2500 kg/ha): 9.0 | Preemergence herbicidal rating SETVI ([3]; rate 0.0156 kg/ha): 0.0 | Preemergence herbicidal rating SETVI ([3]; rate 0.0313 kg/ha): 0.0 | Preemergence herbicidal rating SETVI ([3]; rate 0.0625 kg/ha): 0.0 | Preemergence herbicidal rating SETVI ([3]; rate 0.1250 kg/ha): 9.0 | Preemergence herbicidal rating SETVI ([3]; rate 0.2500 kg/ha): 9.0 | Herbicidal rating CYPIR ([4]; Rate 0.0313 kg/ha): 0.0 | Herbicidal rating CYPIR ([4]; Rate 0.0625 kg/ha): 0.0 | Herbicidal rating CYPIR ([4]; Rate 0.1250 kg/ha): 6.0 | Herbicidal rating CYPIR ([4]; Rate 0.2500 kg/ha): 6.0 | Preemergence herbicidal rating ECHCG ([5]; rate 0.0156 kg/ha): 0.0 | Preemergence herbicidal rating ECHCG ([5]; rate 0.0313 kg/ha): 0.0 | Preemergence herbicidal rating ECHCG ([5]; rate 0.0625 kg/ha): 0.0 | Preemergence herbicidal rating ECHCG ([5]; rate 0.1250 kg/ha): 0.0 | Preemergence herbicidal rating ECHCG ([5]; rate 0.2500 kg/ha): 2.0 | Preemergence herbicidal rating IPOHE ([6]; rate 0.0156 kg/ha): 0.0 | Preemergence herbicidal rating IPOHE ([6]; rate 0.0313 kg/ha): 0.0 | Preemergence herbicidal rating IPOHE ([6]; rate 0.0625 kg/ha): 0.0 | Preemergence herbicidal rating IPOHE ([6]; rate 0.1250 kg/ha): 0.0 | Preemergence herbicidal rating IPOHE ([6]; rate 0.2500 kg/ha): 2.0 | Preemergence herbicidal rating ORYSAT ([7]; rate 0.0156 kg/ha): 0.0 | Preemergence herbicidal rating ORYSAT ([7]; rate 0.0313 kg/ha): 0.0 | Preemergence herbicidal rating ORYSAT ([7]; rate 0.0625 kg/ha): 0.0 | Preemergence herbicidal rating ORYSAT ([7]; rate 0.1250 kg/ha): 1.0 | Preemergence herbicidal rating ORYSAT ([7]; rate 0.2500 kg/ha): 2.0 | Preemergence herbicidal rating CHEAL ([8]; rate 0.0156 kg/ha): 9.0 | Preemergence herbicidal rating CHEAL ([8]; rate 0.0313 kg/ha): 9.0 | Preemergence herbicidal rating CHEAL ([8]; rate 0.0625 kg/ha): 9.0 | Preemergence herbicidal rating CHEAL ([8]; rate 0.1250 kg/ha): 9.0 | Preemergence herbicidal rating CHEAL ([8]; rate 0.2500 kg/ha): 9.0 | Preemergence herbicidal rating TRZAWR ([9]; rate 0.0156 kg/ha): 0.0 | Preemergence herbicidal rating TRZAWR ([9]; rate 0.0313 kg/ha): 0.0 | Preemergence herbicidal rating TRZAWR ([9]; rate 0.0625 kg/ha): 0.0 | Preemergence herbicidal rating TRZAWR ([9]; rate 0.1250 kg/ha): 1.0 | Preemergence herbicidal rating TRZAWR ([9]; rate 0.2500 kg/ha): 2.0 | TRZAWR herbicidal rating ([10]; rate 0.0158 kg/ha): 2.5 | TRZAWR herbicidal rating ([10]; rate 0.0315 kg/ha): 2.5 | TRZAWR herbicidal rating ([10]; rate 0.0630 kg/ha): 2.5 | ECHORC herbicidal effect rating ([11]; 0.0313 kg/ha): 6.0 | ECHORC herbicidal effect rating ([11]; 0.0625 kg/ha): 6.0 | ECHORC herbicidal effect rating ([11]; 0.1250 kg/ha): 9.0 | ECHORC herbicidal effect rating ([11]; 0.2500 kg/ha): 9.0 | IPOHE herbicidal rating ([12]; rate 0.0158 kg/ha): 7.0 | IPOHE herbicidal rating ([12]; rate 0.0315 kg/ha): 7.0 | IPOHE herbicidal rating ([12]; rate 0.0630 kg/ha): 9.0

CCOC(=O)[C@H](Cc1ccccc1)N1C(=O)CSC1=Nc1cc(-n2c(=O)cc(C(F)(F)F)n(C)c2=O)c(F)cc1Cl [Compound 80, Ethyl α-benzyl-2-{{2-chloro-5-[3,6-dihydro-3-methyl-2,6-dioxo-4-(trifluoromethyl)-1(2H)-pyrimidinyl]-4-fluorophenyl}imino}-4-oxo-3-thiazolidineacetate, L-]
ABUTH herbicidal rating ([1]; rate 0.0158 kg/ha): 9.0 | ABUTH herbicidal rating ([1]; rate 0.0315 kg/ha): 9.0 | ABUTH herbicidal rating ([1]; rate 0.0630 kg/ha): 9.0 | Herbicidal rating ECHORC ([2]; Rate 0.0313 kg/ha): 9.0 | Herbicidal rating ECHORC ([2]; Rate 0.0625 kg/ha): 9.0 | Herbicidal rating ECHORC ([2]; Rate 0.1250 kg/ha): 9.0 | Herbicidal rating ECHORC ([2]; Rate 0.2500 kg/ha): 9.0 | Preemergence herbicidal rating SETVI ([3]; rate 0.0156 kg/ha): 0.0 | Preemergence herbicidal rating SETVI ([3]; rate 0.0313 kg/ha): 0.0 | Preemergence herbicidal rating SETVI ([3]; rate 0.0625 kg/ha): 1.0 | Preemergence herbicidal rating SETVI ([3]; rate 0.1250 kg/ha): 7.0 | Preemergence herbicidal rating SETVI ([3]; rate 0.2500 kg/ha): 7.0 | Herbicidal rating CYPIR ([4]; Rate 0.0313 kg/ha): 5.0 | Herbicidal rating CYPIR ([4]; Rate 0.0625 kg/ha): 7.0 | Herbicidal rating CYPIR ([4]; Rate 0.1250 kg/ha): 7.0 | Herbicidal rating CYPIR ([4]; Rate 0.2500 kg/ha): 7.0 | Preemergence herbicidal rating ECHCG ([5]; rate 0.0156 kg/ha): 0.0 | Preemergence herbicidal rating ECHCG ([5]; rate 0.0313 kg/ha): 0.0 | Preemergence herbicidal rating ECHCG ([5]; rate 0.0625 kg/ha): 0.0 | Preemergence herbicidal rating ECHCG ([5]; rate 0.1250 kg/ha): 1.0 | Preemergence herbicidal rating ECHCG ([5]; rate 0.2500 kg/ha): 0.0 | Preemergence herbicidal rating IPOHE ([6]; rate 0.0156 kg/ha): 0.0 | Preemergence herbicidal rating IPOHE ([6]; rate 0.0313 kg/ha): 0.0 | Preemergence herbicidal rating IPOHE ([6]; rate 0.0625 kg/ha): 0.0 | Preemergence herbicidal rating IPOHE ([6]; rate 0.1250 kg/ha): 4.0 | Preemergence herbicidal rating IPOHE ([6]; rate 0.2500 kg/ha): 9.0 | Preemergence herbicidal rating ORYSAT ([7]; rate 0.0156 kg/ha): 0.0 | Preemergence herbicidal rating ORYSAT ([7]; rate 0.0313 kg/ha): 0.0 | Preemergence herbicidal rating ORYSAT ([7]; rate 0.0625 kg/ha): 0.0 | Preemergence herbicidal rating ORYSAT ([7]; rate 0.1250 kg/ha): 1.0 | Preemergence herbicidal rating ORYSAT ([7]; rate 0.2500 kg/ha): 1.0 | Preemergence herbicidal rating CHEAL ([8]; rate 0.0156 kg/ha): 7.0 | Preemergence herbicidal rating CHEAL ([8]; rate 0.0313 kg/ha): 9.0 | Preemergence herbicidal rating CHEAL ([8]; rate 0.0625 kg/ha): 9.0 | Preemergence herbicidal rating CHEAL ([8]; rate 0.1250 kg/ha): 9.0 | Preemergence herbicidal rating CHEAL ([8]; rate 0.2500 kg/ha): 9.0 | Preemergence herbicidal rating TRZAWR ([9]; rate 0.0156 kg/ha): 0.0 | Preemergence herbicidal rating TRZAWR ([9]; rate 0.0313 kg/ha): 0.0 | Preemergence herbicidal rating TRZAWR ([9]; rate 0.0625 kg/ha): 0.0 | Preemergence herbicidal rating TRZAWR ([9]; rate 0.1250 kg/ha): 2.0 | Preemergence herbicidal rating TRZAWR ([9]; rate 0.2500 kg/ha): 1.0 | TRZAWR herbicidal rating ([10]; rate 0.0158 kg/ha): 3.5 | TRZAWR herbicidal rating ([10]; rate 0.0315 kg/ha): 3.5 | TRZAWR herbicidal rating ([10]; rate 0.0630 kg/ha): 4.0 | ECHORC herbicidal effect rating ([11]; 0.0313 kg/ha): 9.0 | ECHORC herbicidal effect rating ([11]; 0.0625 kg/ha): 9.0 | ECHORC herbicidal effect rating ([11]; 0.1250 kg/ha): 9.0 | ECHORC herbicidal effect rating ([11]; 0.2500 kg/ha): 9.0 | IPOHE herbicidal rating ([12]; rate 0.0158 kg/ha): 9.0 | IPOHE herbicidal rating ([12]; rate 0.0315 kg/ha): 9.0 | IPOHE herbicidal rating ([12]; rate 0.0630 kg/ha): 9.0
